ChEMBL document CHEMBL3217454, “Structureactivity relationship studies using peptide arrays: the example of HIV-1 Revintegrase interaction” (Medchemcomm, 2013)
Square brackets hold non-standard residues; d marks the D form. Peptide text beside a SMILES is read from it. NMeT = CN[C@H](C(=O)O)[C@@H](C)O; NMeS = CN[C@@H](CO)C(=O)O; NMeA = CN[C@@H](C)C(=O)O

Key:
[1] = target: Human immunodeficiency virus type 1 integrase (Human immunodeficiency virus 1) (UniProt Q7ZJM1); experiment: Binding affinity to HIV-1 integrase measured after overnight incubation by chemiluminescence analysis relative to IN 118-128; design: concentration or dose not given beside the values
[2] = system: Human immunodeficiency virus 1; experiment: Binding affinity to HLT-tagged HIV-1 Rev measured after overnight incubation by chemiluminescence analysis relative to IN 118-128; design: concentration or dose not given beside the values

Human immunodeficiency virus type 1 integrase (Human immunodeficiency virus 1), sequence (Q7ZJM1 as listed by the source): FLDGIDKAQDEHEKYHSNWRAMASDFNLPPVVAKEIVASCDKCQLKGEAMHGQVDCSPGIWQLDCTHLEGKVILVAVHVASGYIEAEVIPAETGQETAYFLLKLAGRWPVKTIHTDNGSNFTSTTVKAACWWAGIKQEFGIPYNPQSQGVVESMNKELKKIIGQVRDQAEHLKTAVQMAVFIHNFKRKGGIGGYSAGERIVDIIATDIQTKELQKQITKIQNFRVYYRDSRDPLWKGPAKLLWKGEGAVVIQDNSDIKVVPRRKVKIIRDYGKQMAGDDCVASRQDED

SMILES	Activity [1]	Activity [2]
CC(C)[C@H](NC(=O)[C@@H](NC(=O)[C@@H](NC(=O)[C@H](CO)NC(=O)[C@H]([C@@H](C)O)N(C)C(=O)[C@H](Cc1ccccc1)NC(=O)[C@H](CC(N)=O)NC(=O)[C@H](CO)NC(=O)CN)[C@@H](C)O)[C@@H](C)O)C(=O)N[C@@H](CCCCN)C(=O)N[C@@H](C)C(=O)O (H-GSNF[NMeT]STTVKA-OH)	165%	200%
CC(C)[C@H](NC(=O)[C@@H](NC(=O)[C@@H](NC(=O)[C@H](CO)NC(=O)[C@@H](NC(=O)[C@H](Cc1ccccc1)NC(=O)[C@H](CC(N)=O)NC(=O)[C@H](CO)NC(=O)CN)[C@@H](C)O)[C@@H](C)O)[C@@H](C)O)C(=O)N[C@@H](CCCCN)C(=O)O (H-GSNFTSTTVK-OH)	242%	201%
CC(C)[C@H](NC(=O)[C@@H](NC(=O)[C@@H](NC(=O)[C@H](CO)NC(=O)[C@@H](NC(=O)[C@@H](N)Cc1ccccc1)[C@@H](C)O)[C@@H](C)O)[C@@H](C)O)C(=O)N[C@@H](CCCCN)C(=O)N[C@@H](C)C(=O)O (H-FTSTTVKA-OH)	236%	280%
C[C@H](NC(=O)[C@H](CCCCN)NC(=O)[C@H](C)NC(=O)[C@@H](NC(=O)[C@@H](NC(=O)[C@H](CO)NC(=O)[C@@H](NC(=O)[C@H](Cc1ccccc1)NC(=O)[C@H](CC(N)=O)NC(=O)[C@H](CO)NC(=O)CN)[C@@H](C)O)[C@@H](C)O)[C@@H](C)O)C(=O)O (H-GSNFTSTTAKA-OH)	129%	64%
CC(C)[C@H](NC(=O)[C@@H](NC(=O)[C@@H](NC(=O)[C@H](CO)NC(=O)[C@@H](NC(=O)[C@H](Cc1ccccc1)NC(=O)[C@@H](CC(N)=O)NC(=O)[C@H](CO)NC(=O)CN)[C@@H](C)O)[C@@H](C)O)[C@@H](C)O)C(=O)N[C@@H](CCCCN)C(=O)N[C@@H](C)C(=O)O	133%	144%
CC(C)[C@H](NC(=O)[C@@H](NC(=O)[C@@H](NC(=O)[C@@H](CO)NC(=O)[C@@H](NC(=O)[C@H](Cc1ccccc1)NC(=O)[C@H](CC(N)=O)NC(=O)[C@H](CO)NC(=O)CN)[C@@H](C)O)[C@@H](C)O)[C@@H](C)O)C(=O)N[C@@H](CCCCN)C(=O)N[C@@H](C)C(=O)O	92%	124%
CC(C)[C@H](NC(=O)[C@@H](NC(=O)[C@@H](NC(=O)[C@H](CO)NC(=O)[C@@H](NC(=O)[C@H](Cc1ccccc1)NC(=O)[C@H](CC(N)=O)NC(=O)[C@H](CO)NC(=O)CN)[C@@H](C)O)[C@@H](C)O)[C@@H](C)O)C(=O)N[C@@H](CCCCN)C(=O)N[C@H](C)C(=O)O	136%	137%
CC(C)[C@H](NC(=O)[C@@H](NC(=O)[C@@H](NC(=O)[C@H](CO)NC(=O)[C@@H](NC(=O)[C@H](Cc1ccccc1)NC(=O)[C@H](CC(N)=O)NC(=O)[C@H](CO)NC(=O)CN)[C@@H](C)O)[C@@H](C)O)[C@@H](C)O)C(=O)N[C@@H](CCCCN)C(=O)N(C)[C@@H](C)C(=O)O (H-GSNFTSTTVK[NMeA]-OH)	136%	141%
CC(C)[C@H](NC(=O)[C@@H](NC(=O)[C@@H](NC(=O)[C@H](C)NC(=O)[C@@H](NC(=O)[C@H](Cc1ccccc1)NC(=O)[C@H](CC(N)=O)NC(=O)[C@H](CO)NC(=O)CN)[C@@H](C)O)[C@@H](C)O)[C@@H](C)O)C(=O)N[C@@H](CCCCN)C(=O)N[C@@H](C)C(=O)O (H-GSNFTATTVKA-OH)	135%	182%
CC(C)[C@H](NC(=O)[C@@H](NC(=O)[C@@H](NC(=O)[C@H](CO)NC(=O)[C@@H](NC(=O)[C@H](Cc1ccccc1)NC(=O)[C@H](CC(N)=O)NC(=O)[C@H](CO)N(C)C(=O)CN)[C@@H](C)O)[C@@H](C)O)[C@@H](C)O)C(=O)N[C@@H](CCCCN)C(=O)N[C@@H](C)C(=O)O (H-G[NMeS]NFTSTTVKA-OH)	182%	293%
CC(C)[C@H](NC(=O)[C@@H](NC(=O)[C@@H](NC(=O)[C@H](CO)NC(=O)[C@@H](NC(=O)[C@H](Cc1ccccc1)NC(=O)[C@H](CC(N)=O)NC(=O)[C@@H](CO)NC(=O)CN)[C@@H](C)O)[C@@H](C)O)[C@@H](C)O)C(=O)N[C@@H](CCCCN)C(=O)N[C@@H](C)C(=O)O	346%	190%
CC(C)[C@H](NC(=O)[C@@H](NC(=O)[C@@H](NC(=O)[C@H](CO)NC(=O)[C@@H](NC(=O)[C@H](Cc1ccccc1)NC(=O)[C@H](CC(N)=O)NC(=O)[C@@H](N)CO)[C@@H](C)O)[C@@H](C)O)[C@@H](C)O)C(=O)N[C@@H](CCCCN)C(=O)N[C@@H](C)C(=O)O (H-SNFTSTTVKA-OH)	207%	177%
